In patent US20030129193A1 (priority 2001, published 2003):

Tests used:
[1] = test system: factor X; settings: appropriate phospholipid membrane environment; cited from earlier work
[2] = test system: factor X; assay: Cell free two-stage coagulation assay; format: biochemical; settings: Factor Xa generation, absorption at 405 nm
Description: In vitro coagulation activity was tested in a cell free two-stage coagulation assay. Negatively charged phospholipids at a final concentration of 50 μM (phosphatidylserine and phosphatidylcholine from Sigma, Taufkirchen, Germany) in calcium buffer (50 mM Tris pH=8.1, 150 mM NaCl, 2 mg/ml BSA, 5 mM Ca^++) were mixed with Factor VIIa (Sigma, Taufkirchen, Germany) at 10 nM and with samples or controls and incubated for five min at 37° C. Factor X was added to a final concentration of 30 nM and samples were incubated for 5 min at room temperature. Finally, the chromogenic substrate S2765 (Haemochrom, Essen, Germany) was added in a 100 mM EDTA solution. Factor Xa generation as a measure of Tissue Factor activity was determined by the increase in the absorption at 405 nm.
Negatively charged phospholipids at a final concentration of 50 μM (phosphatidylserine and phosphatidylcholine from Sigma, St. Louis, Mo.) in calcium buffer (50 mM Tris pH=8.1, 150 mM NaCl, 2 mg/ml BSA, 5 mM Ca^++) were mixed with Factor VIIa (Sigma. St. Louis, Mo.) at 10 nM and with samples or controls and incubated for five minutes at 37° C. Factor X (Sigma, St. Louis, Mo.) was added to a final concentration of 30 nM and samples were incubated for 5 minutes at room temperature. […] Factor Xa generation as a measure of tissue factor activity was determined by the increase in the absorption at 405 nm.

[3] = test system: H460 human non-small cell lung carcinoma; assay: Anti-tumor effects, H460; format: in vivo, nu/nu mice
Description: The tumor test systems were: i) L540 human Hodgkin's disease tumors growing in SCID mice; ii) C1300 Muγ (interferon-secreting) neuroblastoma growing in nu/nu mice; iii) H460 human non-small cell lung carcinoma growing in nu/nu mice. To establish solid tumors, 1.5×10^7 tumor cells were injected subcutaneously into the right anterior flank of SCID or BALB/c nu/nu mice (Charles River Labs., Wilmingham, Mass.). When the tumors had grown to various diameters mice were assigned to different experimental groups, each containing 4 to 9 mice.
Other mice received equivalent quantities of bispecific antibody alone. The injections were performed over ˜45 seconds into one of the tail veins, followed by 200 μl of saline. The infusions were repeated six days later. Perpendicular tumor diameters were measured at regular intervals and tumor volumes were calculated.

[4] = test system: 3LL mouse lung carcinoma; assay: In vivo tumor thrombosis, 3LL; parameters: species or system C57BL/6 mice; settings: large (>800 mm^3) 3LL tumors
Description: (§1) Tumor test systems were of four types: i) 3LL mouse lung carcinoma growing subcutaneously in C57BL/6 mice; ii) C1300 mouse neuroblastoma growing subcutaneously in BALB/c nu/nu mice; iii) HT29 human colorectal carcinoma growing subcutaneously in BALB/c nu/nu mice; and iv) C1300 Muγ mouse neuroblastoma growing subcutaneously in BALB/c nu/nu mice. The C1300 Muγ tumor is an interferon-γ secreting transfectant derived from the C 1300 tumor (Watanabe et al., 1989).
(§2) To establish tumors, 10^6 to 1.5×10^7 tumor cells were injected subcutaneously into the right anterior flank of the mice. When tumors had grown to various sizes, mice were randomly assigned to different study groups. […] Fab′, or bispecific antibody. Other mice received equivalent quantities IgG, Fab′ or bispecific antibody alone. The injections were performed slowly into one of the tail veins over approximately 45 seconds, usually followed by 200 μl of saline.
(§3) Twenty-four hours after being injected with tTF or immunoglobulin-tTF conjugates, the mice were anesthetized with metophane and were exsanguinated by perfusion with heparinized saline. Tumors and normal tissues were excised and immediately fixed in 3% (v/v) formalin. Paraffin sections were cut and stained with hematoxylin and eosin. Blood vessels having open lumens containing erythrocytes and blood vessels containing thrombi were counted. […]

[5] = test system: C1300 mouse neuroblastoma; assay: In vivo tumor thrombosis, C1300; parameters: species or system BALB/c nu/nu mice; settings: large C1300 tumors (>1000 mm^3), 24 hours after injection
Description: as §1, §2, §3

[6] = test system: F9 sarcoma; assay: Sarcoma mouse model, tumor necrosis; format: in vivo, balb/c nude mice; settings: endotoxin-free tTF, 4 μg
Description: 1×10^7 F9 sarcoma cells were injected subcutaneously into the right flank of balb/c nude mice. Subcutanous tumors were measured with a caliper in three perpendicular directions a, b, and c, and volumes calculated according to the formula V=π/6×a×b×c. Treatment was initiated when subcutaneous tumors reached a size of 150 to 300 μl.
Reagents were administered into the lateral tail vein.
Mice were closely observed after treatment for clinical signs of toxicity and clinical status was documented at defined time points. Three days after treatment, mice were sacrificed and tumors were harvested. Paraffin embedded tissues were stained with hematoxilin and eosin (H&E). Tissue sections were analyzed on a light microscope by two independent investigators and histological findings were documented. Tumor sections with necrotic areas were scanned with a GS-700 imaging densitometer (Biorad, Hercules, Calif.) and areas of necrosis were calculated as % of total section area.

[7] = test system: L540 human Hodgkin's tumors; assay: Anti-VCAM-1•tTF coaguligand, L540; format: in vivo, SCID mice
Description: Mice bearing subcutaneous L540 tumors were injected intravenously with anti-VCAM-1 antibody and, two hours later, the mice were exsanguinated. The tumor and normal organs were removed and frozen sections were prepared and examined immunohistochemically to determine the location of the antibody. […] No localization of anti-VCAM-1 antibody was found in testis or any normal organ except heart and lung.
Before coaguligand injection, tumors were viable, having a uniform morphology lacking regions of necrosis. […] Within four hours of coaguligand injection, 40-70% of blood vessels were thrombosed, despite the initial staining of only 20-30% of tumor blood vessels. The thrombosed vessels contained occlusive platelet aggregates, packed erythrocytes and fibrin. In several regions, the blood vessels had ruptured, spilling erythrocytes into the tumor interstitium.
The drug was administered i.v. 3 times at intervals of 4 days.

[8] = test system: C1300 Muγ mouse neuroblastoma; assay: In vivo tumor thrombosis and anti-tumor effects, C1300 (Muγ); parameters: species or system BALB/c nu/nu mice

## tTF: extracellular domain of the mature Tissue Factor protein (amino acid 1-219)
[1]
  factor X-activating activity, times less than native transmembrane TF: approximately 10^5 times
[2]
  coagulation activities before and after endotoxin removal: the same
[3]; first treatment, small (250 mm^3) tumors
  effect on growth rate: little effect on growth rate
[3]; second treatment given at 900 mm^3
  tumor volume after regression: 550 mm^3
[4]
  tumor vessels thrombosed, average: 62%
[5]
  thrombosis of tumor vessels: virtually all vessels were thrombosed
[6]
  average tumor tissue necrosis: 45%
[7]; 0.3-0.4 cm^3 tumors, i.v. 3 times at intervals of 4 days
  effect on tumor growth: did not affect tumor growth
[7]; equivalent quantities
  control reagents that caused thrombosis of tumor vessels: None
[8]; 24 hours after injection
  thrombosis of tumor vessels: practically all vessels in all regions of the tumor were thrombosed
[8]; small (<500 mm^3) C1300 and C1300 Muγ
  effect on vessels in small tumors: largely unaffected
[8]; tTF alone or mixed with control bispecific antibodies vs antibodies or saline alone
  tumor growth: grew significantly more slowly
